The record followed here is ChEMBL document CHEMBL1201862, “PubChem BioAssay data set” (2004).

Test in all cases: NCI anticancer screen, dose series, 48 h
For experiment [1], the system named is SNB-75.
For experiment [2], the system named is SW-620.
Experiment [3] concerns HT-29.
Experiment [4] relates to SK-MEL-28.
Experiment [5] relates to OVCAR-3.
Experiment [6] has as its system HCT-116.
Experiment [7] relates to SR.
The subject of experiment [8] is SNB-19.
The test system of experiment [9] is A549.
Experiment [10] has as its system NCI-H522.
The subject of experiment [11] is CCRF-CEM.
The subject of experiment [12] is HCT-15.
Experiment [13] concerns HOP-92.
Experiment [14] deals with A498.
Experiment [15] concerns EKVX.
In experiment [16] the test system is RPMI-8226.

Each structure is given as a SMILES string.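 48-hour exposure; five concentrations; linearly interpolated endpoints. GI50 marks 50% less growth.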 The source made the active and inactive calls. Rule as the data show it: active = GI50 up to about 1.1 µM and inactive = higher.

`COC1=CC(=O)NCCN1`: the GI50 in experiment [1] was > 100 µM (inactive); in experiment [2], 18.2 µM (inactive); in [3], > 100 µM (inactive); in experiment [4], > 100 µM (inactive); in experiment [5] it was > 100 µM (inactive); in experiment [6], 74.3 µM (inactive). Also, the GI50 in experiment [7] is > 100 µM (inactive); in experiment [8] it was > 100 µM (inactive); in experiment [9], > 100 µM (inactive); in [10], > 100 µM (inactive); in experiment [11] it was 51.4 µM (inactive); in experiment [12], 52.2 µM. Further, the GI50 in experiment [13], in [14] and in experiment [15] was > 100 µM (inactive) throughout.
For `Cc1ccc(NC(=O)c2cc3cc(/N=N/c4ccc(Br)cc4)ccc3oc2=O)cc1`, the GI50 in [1] was > 100 µM (inactive); in experiment [2], 86.9 µM (inactive); in experiment [3], > 100 µM (inactive); in experiment [4], > 100 µM (inactive); in [6] it was 46.9 µM (inactive); in experiment [7], 61 µM (inactive). For the same molecule, the GI50 in experiment [8] is 25.9 µM (inactive); in experiment [9] it was > 100 µM (inactive); in experiment [10], > 100 µM (inactive); in experiment [16], > 100 µM (inactive); in [12] it was 46 µM; in [13] it was > 100 µM (inactive). Besides, the GI50 in experiment [14] was 46.3 µM (inactive).
For the molecule `CCOC(=O)C1C(=O)CN2CCc3c([nH]c4ccccc34)C12C(=O)OCC` (configuration not stated), the GI50 in experiment [1], in [2], in [3], in experiment [4], in experiment [5] and in experiment [6] was > 100 µM (inactive) throughout. Besides, the GI50 is > 100 µM (inactive) in experiment [7]; > 100 µM (inactive) in experiment [8]; > 100 µM (inactive) in experiment [9]; > 100 µM (inactive) in [10]; > 100 µM (inactive) in experiment [11]; greater than 100 µM in experiment [12]. Besides, the GI50 in [13], in [14] and in [15] was > 100 µM (inactive) each time.
Take `Cc1ccc(NC(=O)/C(=N\Nc2ccc([N+](=O)[O-])cc2[N+](=O)[O-])C2C(=O)NC(=O)NC2=O)cc1`: the GI50 is 26.7 µM (inactive) in experiment [1]; 45.7 µM (inactive) in experiment [2]; 49.5 µM (inactive) in experiment [3]; > 100 µM (inactive) in [4]; > 100 µM (inactive) in experiment [5]; 62.4 µM (inactive) in experiment [6]. Besides, the GI50 was > 100 µM (inactive) in [7]; > 100 µM (inactive) in [8]; 50.9 µM (inactive) in experiment [9]; > 100 µM (inactive) in [10]; 31.8 µM (inactive) in [11]; 70 µM (inactive) in experiment [16]. Further, the GI50 in [12] is 6.31 µM; in experiment [13], > 100 µM (inactive); in experiment [14], > 100 µM (inactive).
In the case of `CCOC(=O)CCC(NC(=O)c1ccc(/N=C/c2nc3ccccc3nc2-c2ccccc2)cc1)C(=O)OCC` (configuration not stated), the GI50 in experiment [1] is 20 µM (inactive); in [2], > 100 µM (inactive); in [3], > 100 µM (inactive); in experiment [4] it was > 100 µM (inactive); in experiment [5], > 100 µM (inactive); in [6] it was > 100 µM (inactive). Also, the GI50 in experiment [7], in experiment [8], in experiment [9], in [10], in experiment [11] and in [16] was > 100 µM (inactive) in each case. Besides, the GI50 in experiment [12] is greater than 100 µM; in [13], > 100 µM (inactive); in experiment [14], > 100 µM (inactive); in experiment [15] it was > 100 µM (inactive).
As for `N#Cc1nn(-c2ccc(Cl)cc2)c(=N)c2c(N)n3nc(-c4ccccc4)cc3nc12`, the GI50 is 1 µM (active) in experiment [1]; > 100 µM (inactive) in [2]; 1 µM (active) in experiment [3]; 1 µM (active) in experiment [4]; 0.804 µM (active) in experiment [5]; 1 µM (active) in experiment [6]. In addition, the GI50 in [7] is < 0.01 µM (active); in experiment [8], 1 µM (active); in experiment [9], 1 µM (active); in experiment [11], 1 µM (active); in experiment [16] it was 1 µM (active); in experiment [12], 1 µM. In addition, the GI50 is 0.546 µM (active) in [13], 1 µM (active) in [14] and 1 µM (active) in experiment [15].
On to `CC(C)N(C(=O)C12C3C4C5C3C1(C#N)C5C42)C(C)C` (configuration not stated), for which the GI50 in [1] was > 100 µM (inactive); in [2] it was 11.6 µM (inactive); in [3] it was > 100 µM (inactive); in experiment [4] it was > 100 µM (inactive); in experiment [5], > 100 µM (inactive); in [6], > 100 µM (inactive). Also, the GI50 in [7], in experiment [8], in experiment [9], in [10], in experiment [11] and in [16] was > 100 µM (inactive) throughout. Besides, the GI50 was greater than 100 µM in [12], > 100 µM (inactive) in experiment [13], > 100 µM (inactive) in [14] and > 100 µM (inactive) in [15].
Consider `COc1cc(/C=C2/C(=O)N(C(=O)OC(C)C)C(Cc3cc(OC)c(OC)c(C)c3OC)C(=O)N2Cc2ccccc2)c(OC)c(C)c1OC` (configuration not stated), for which the GI50 in experiment [1] is 56 µM (inactive); in experiment [2] it was 14.8 µM (inactive); in experiment [3] it was 27.9 µM (inactive); in experiment [4], > 100 µM (inactive); in [5], 12.7 µM (inactive); in experiment [6], 27.5 µM (inactive). Moreover, the GI50 was 7.24 µM (inactive) in [7]; 56.9 µM (inactive) in experiment [9]; 3.74 µM (inactive) in experiment [10]; 13.1 µM (inactive) in experiment [11]; 6.58 µM (inactive) in experiment [16]; 4 µM (inactive) in [13]. In addition, the GI50 in [14] was 73.1 µM (inactive); in [15] it was > 100 µM (inactive).
Regarding `Cc1c(C)c2ccc3oc4ccccc4c3c2oc1=O`, the GI50 in [1] is 57.8 µM (inactive); in experiment [2] it was > 100 µM (inactive); in experiment [3], > 100 µM (inactive); in [4], > 100 µM (inactive); in experiment [5], > 100 µM (inactive); in experiment [6] it was 96.4 µM (inactive). For the same molecule, the GI50 in experiment [7], in [8], in experiment [9], in experiment [10], in experiment [11] and in [16] was > 100 µM (inactive) in each case. Besides, the GI50 was greater than 100 µM in experiment [12], 52.6 µM (inactive) in experiment [13], > 100 µM (inactive) in experiment [14] and > 100 µM (inactive) in [15].
For the molecule `CC1(C)OC(=O)[C@@](C)([C@H](O)c2ccccc2)O1`, the GI50 in experiment [1] is 65 µM (inactive); in experiment [2], > 100 µM (inactive); in experiment [3], > 100 µM (inactive); in experiment [4], > 10 µM (inactive); in [5], 35.8 µM (inactive); in experiment [6] it was 93.8 µM (inactive). The GI50 was 50.6 µM (inactive) in experiment [7]; > 100 µM (inactive) in experiment [8]; 83.2 µM (inactive) in experiment [9]; 67 µM (inactive) in experiment [10]; > 100 µM (inactive) in experiment [11]; 28.6 µM (inactive) in [13]. The GI50 in [14] and in [15] was > 100 µM (inactive) in each case.
Consider `CN(C)CC(/C(Cc1ccccc1)=N\NC(=O)C[n+]1ccccc1)c1ccccc1` (configuration not stated), for which the GI50 in [1], in [3], in experiment [4], in experiment [5], in experiment [6] and in experiment [7] was > 100 µM (inactive) each time. Further, the GI50 in [8] is > 100 µM (inactive); in [9] it was > 100 µM (inactive); in experiment [10], 80.9 µM (inactive); in experiment [11], > 100 µM (inactive); in [12], greater than 100 µM; in experiment [13] it was > 100 µM (inactive). Further, the GI50 in experiment [14] and in experiment [15] was > 100 µM (inactive) each time.
In the case of `CCOCN1COCN/C1=N/C#N`, the GI50 in experiment [1] was > 100 µM (inactive); in experiment [2] it was 17.9 µM (inactive); in experiment [3], > 100 µM (inactive); in experiment [4], > 100 µM (inactive); in [5], > 100 µM (inactive); in experiment [6], > 100 µM (inactive). Moreover, the GI50 was 25.8 µM (inactive) in experiment [7]; > 100 µM (inactive) in [8]; 31.8 µM (inactive) in experiment [9]; > 100 µM (inactive) in experiment [10]; 58.5 µM in experiment [12]; > 100 µM (inactive) in [13]. The GI50 in [14] and in experiment [15] was > 100 µM (inactive) in each case.
For the molecule `CCC(=O)OC1CCn2c1nc1c2C(=O)C(C)=C(NC(C)=O)C1=O` (configuration not stated), the GI50 is 5.01 µM (inactive) in experiment [1]; 1.49 µM (inactive) in [2]; 1.69 µM (inactive) in [3]; 2.22 µM (inactive) in [4]; 0.236 µM (active) in experiment [5]; 1.67 µM (inactive) in experiment [6]. Further, the GI50 is 1.91 µM (inactive) in [7]; 2.9 µM (inactive) in experiment [8]; 2.05 µM (inactive) in experiment [9]; 1.54 µM (inactive) in experiment [10]; 0.736 µM (active) in experiment [11]; 1.93 µM (inactive) in experiment [16]. The GI50 in experiment [13] was 1.69 µM (inactive); in experiment [14] it was 18.4 µM (inactive); in experiment [15], 2.03 µM (inactive).
